Here are results for 40 compounds from US8067460B2 (The Regents of the University of Califonia, priority 2004, dated 2011).

Where two headings read alike, the source gives them in different places. No end group written: not given here.

In one assay the target is Kv1.3 (Mus musculus, UniProt P16390). Briefly: Inhibitory effect on K+ channels (Appendix A): Kv1.3. The assay is classed as cell-based. Conditions: for nH (Kv1.3): Hill coefficient printed beside the Kv1.3 EC50; for selectivity for Kv1.3 channels over Kv1.5 channels: Kv1.3 versus Kv1.5, from Appendix A.
The target of another assay is Kv1.1 (Homo sapiens, UniProt Q09470). The experiment in a line: Inhibitory effect on K+ channels (Appendix A): Kv1.1. The class given is cell-based.
The next assay deals with IKCa1 (Homo sapiens, UniProt O15554). The experiment in a line: Inhibitory effect on K+ channels (Appendix A): IKCa1. The assay is classed as cell-based.
In another assay the target is BK (Homo sapiens, UniProt Q12791). Briefly: Inhibitory effect on K+ channels (Appendix A): BK. The class given is cell-based.
Another assay addresses Kv1.7 (Homo sapiens, UniProt Q96RP8). The experiment in a line: Inhibitory effect on K+ channels (Appendix A): Kv1.7. The class given is cell-based.
The next assay addresses Kv1.5 (Homo sapiens, UniProt P22460). Briefly: Inhibitory effect on K+ channels (Appendix A): Kv1.5. The settings on record: for nH (Kv1.5): Hill coefficient printed beside the Kv1.5 EC50. The class given is cell-based.
The next assay deals with Kv1.4 (Homo sapiens, UniProt P22459). Briefly: Inhibitory effect on K+ channels (Appendix A): Kv1.4. The class given is cell-based.
Assay [1] relates to delayed-type hypersensitivity (DTH) response. The settings on record: mini-pigs, cited from earlier work.
Assay [2] relates to class-switched (IgD−CD27+) memory B cells. The settings on record: cited from earlier work.

Sequence of Kv1.1 (Q09470 whole entry): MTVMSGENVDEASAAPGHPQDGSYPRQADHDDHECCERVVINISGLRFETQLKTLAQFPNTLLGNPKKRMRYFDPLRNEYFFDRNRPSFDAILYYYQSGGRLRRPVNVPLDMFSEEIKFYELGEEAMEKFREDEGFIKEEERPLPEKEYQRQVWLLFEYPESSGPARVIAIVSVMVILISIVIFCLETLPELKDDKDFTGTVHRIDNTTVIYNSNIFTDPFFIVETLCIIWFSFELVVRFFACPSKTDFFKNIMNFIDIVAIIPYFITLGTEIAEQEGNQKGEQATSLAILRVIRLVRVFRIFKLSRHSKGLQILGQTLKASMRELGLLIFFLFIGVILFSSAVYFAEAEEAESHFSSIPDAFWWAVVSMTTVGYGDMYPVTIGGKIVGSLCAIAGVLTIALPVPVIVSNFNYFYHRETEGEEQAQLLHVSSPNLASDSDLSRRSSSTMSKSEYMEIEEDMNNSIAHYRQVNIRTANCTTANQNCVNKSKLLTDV
Sequence of Kv1.3 (P16390 whole entry): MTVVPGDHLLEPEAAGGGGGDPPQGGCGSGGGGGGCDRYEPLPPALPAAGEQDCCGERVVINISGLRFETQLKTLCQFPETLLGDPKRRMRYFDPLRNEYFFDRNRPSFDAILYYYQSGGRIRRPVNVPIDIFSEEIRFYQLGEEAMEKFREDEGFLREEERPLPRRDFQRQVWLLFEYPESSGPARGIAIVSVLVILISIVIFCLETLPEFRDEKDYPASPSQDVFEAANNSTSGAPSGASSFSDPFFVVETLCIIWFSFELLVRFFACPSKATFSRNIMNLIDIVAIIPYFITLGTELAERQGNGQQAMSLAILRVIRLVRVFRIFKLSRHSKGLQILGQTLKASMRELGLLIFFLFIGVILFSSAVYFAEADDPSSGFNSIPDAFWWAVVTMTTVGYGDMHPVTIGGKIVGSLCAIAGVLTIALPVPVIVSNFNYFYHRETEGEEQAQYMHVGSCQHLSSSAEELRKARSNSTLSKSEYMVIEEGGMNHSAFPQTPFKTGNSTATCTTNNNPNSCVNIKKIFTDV
Sequence of Kv1.5 (P22460 whole entry): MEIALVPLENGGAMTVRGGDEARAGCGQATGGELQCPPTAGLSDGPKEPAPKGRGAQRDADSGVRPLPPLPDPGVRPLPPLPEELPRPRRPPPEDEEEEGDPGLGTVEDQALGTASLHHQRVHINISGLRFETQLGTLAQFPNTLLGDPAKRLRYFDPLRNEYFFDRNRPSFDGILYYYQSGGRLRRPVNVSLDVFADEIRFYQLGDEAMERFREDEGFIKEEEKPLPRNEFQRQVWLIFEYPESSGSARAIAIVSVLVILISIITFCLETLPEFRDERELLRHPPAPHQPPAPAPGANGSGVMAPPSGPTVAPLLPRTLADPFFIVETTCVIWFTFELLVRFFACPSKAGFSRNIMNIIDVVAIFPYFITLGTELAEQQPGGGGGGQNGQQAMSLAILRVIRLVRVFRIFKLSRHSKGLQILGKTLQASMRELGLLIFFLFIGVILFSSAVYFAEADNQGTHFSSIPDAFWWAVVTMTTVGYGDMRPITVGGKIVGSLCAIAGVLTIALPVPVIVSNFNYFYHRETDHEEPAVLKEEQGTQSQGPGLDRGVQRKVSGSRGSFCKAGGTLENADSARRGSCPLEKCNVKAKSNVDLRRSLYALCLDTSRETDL
Sequence of Kv1.4 (P22459 whole entry): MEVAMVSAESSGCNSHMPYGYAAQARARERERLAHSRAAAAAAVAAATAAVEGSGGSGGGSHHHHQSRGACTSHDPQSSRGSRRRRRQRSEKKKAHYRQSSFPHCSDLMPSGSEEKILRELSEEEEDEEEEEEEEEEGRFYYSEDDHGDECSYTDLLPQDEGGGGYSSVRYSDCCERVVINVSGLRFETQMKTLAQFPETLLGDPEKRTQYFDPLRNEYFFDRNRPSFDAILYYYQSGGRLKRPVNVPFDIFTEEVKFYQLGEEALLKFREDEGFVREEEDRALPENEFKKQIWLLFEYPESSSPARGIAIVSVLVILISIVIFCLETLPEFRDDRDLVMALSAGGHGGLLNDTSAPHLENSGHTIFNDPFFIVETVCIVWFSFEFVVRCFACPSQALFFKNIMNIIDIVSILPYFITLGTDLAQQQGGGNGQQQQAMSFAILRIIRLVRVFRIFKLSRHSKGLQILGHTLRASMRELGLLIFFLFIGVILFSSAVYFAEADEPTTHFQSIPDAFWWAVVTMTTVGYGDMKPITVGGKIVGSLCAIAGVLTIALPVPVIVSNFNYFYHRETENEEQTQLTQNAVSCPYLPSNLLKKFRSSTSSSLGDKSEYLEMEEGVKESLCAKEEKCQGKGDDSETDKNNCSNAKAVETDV
Sequence of BK (Q12791 whole entry): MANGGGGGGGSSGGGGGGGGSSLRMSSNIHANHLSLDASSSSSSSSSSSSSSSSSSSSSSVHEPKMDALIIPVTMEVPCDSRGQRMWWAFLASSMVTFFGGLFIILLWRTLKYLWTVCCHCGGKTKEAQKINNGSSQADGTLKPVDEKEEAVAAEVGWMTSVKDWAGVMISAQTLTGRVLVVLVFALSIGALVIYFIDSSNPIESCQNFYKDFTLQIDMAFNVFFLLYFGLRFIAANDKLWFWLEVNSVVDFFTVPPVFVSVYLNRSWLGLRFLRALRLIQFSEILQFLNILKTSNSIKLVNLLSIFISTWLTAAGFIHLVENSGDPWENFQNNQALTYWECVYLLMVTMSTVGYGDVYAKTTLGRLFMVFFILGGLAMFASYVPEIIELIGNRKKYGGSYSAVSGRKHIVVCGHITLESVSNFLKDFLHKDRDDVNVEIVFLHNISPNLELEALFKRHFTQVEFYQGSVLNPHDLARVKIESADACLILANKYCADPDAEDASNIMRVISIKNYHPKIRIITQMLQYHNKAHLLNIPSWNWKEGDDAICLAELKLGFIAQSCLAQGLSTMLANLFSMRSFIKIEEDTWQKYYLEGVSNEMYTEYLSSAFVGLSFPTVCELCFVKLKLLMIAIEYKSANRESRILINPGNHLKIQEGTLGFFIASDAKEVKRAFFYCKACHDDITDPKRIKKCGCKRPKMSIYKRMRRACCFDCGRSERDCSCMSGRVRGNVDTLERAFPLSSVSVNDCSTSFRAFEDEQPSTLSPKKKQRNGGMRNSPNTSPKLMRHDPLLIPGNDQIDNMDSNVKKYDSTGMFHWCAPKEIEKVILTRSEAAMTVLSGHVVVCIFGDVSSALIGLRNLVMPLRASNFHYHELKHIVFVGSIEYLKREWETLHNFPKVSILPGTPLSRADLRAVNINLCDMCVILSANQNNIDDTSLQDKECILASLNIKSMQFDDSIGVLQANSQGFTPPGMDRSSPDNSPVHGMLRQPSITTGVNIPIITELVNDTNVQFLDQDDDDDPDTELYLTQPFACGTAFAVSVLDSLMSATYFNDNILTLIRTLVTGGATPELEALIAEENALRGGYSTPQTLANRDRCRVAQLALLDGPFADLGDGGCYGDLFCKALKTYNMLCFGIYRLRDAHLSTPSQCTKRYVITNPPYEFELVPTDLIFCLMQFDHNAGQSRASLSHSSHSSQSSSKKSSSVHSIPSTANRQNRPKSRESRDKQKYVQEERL
Sequence of Kv1.7 (Q96RP8 whole entry): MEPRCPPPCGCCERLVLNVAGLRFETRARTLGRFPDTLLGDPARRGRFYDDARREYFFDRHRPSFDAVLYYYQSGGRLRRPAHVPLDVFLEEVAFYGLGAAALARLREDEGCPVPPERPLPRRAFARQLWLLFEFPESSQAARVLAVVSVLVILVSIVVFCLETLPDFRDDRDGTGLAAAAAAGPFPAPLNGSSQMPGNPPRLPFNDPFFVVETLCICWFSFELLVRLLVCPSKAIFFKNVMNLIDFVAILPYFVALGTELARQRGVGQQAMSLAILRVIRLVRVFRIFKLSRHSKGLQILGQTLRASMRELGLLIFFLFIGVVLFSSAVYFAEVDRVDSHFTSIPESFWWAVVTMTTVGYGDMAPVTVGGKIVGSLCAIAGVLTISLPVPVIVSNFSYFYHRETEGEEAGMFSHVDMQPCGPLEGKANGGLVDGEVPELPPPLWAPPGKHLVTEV

Consider `O=c1ccc2c(OCCCCOc3ccccc3)c3ccoc3cc2o1` [PAP 1, 4-(4-Phenoxybutoxy)-7H-furo[3,2-g][1]benzopyran-7-on], for which the “nH (Kv1.3)” value at Kv1.3 is 1.8. The EC50 at Kv1.1 turned out to be 65 ± 8 nM; at IKCa1, 10000 ± 1000 nM; at BK, 1500 ± 700 nM; at Kv1.7, 98 ± 5 nM; at Kv1.5 it was 0.045 ± 0.003 µM; at Kv1.4, 75 ± 5 nM. Moreover, at Kv1.5, the “nH (Kv1.5)” value came out at 2.3.

In turn, `O=c1ccc2c(OCCCCn3cccn3)c3ccoc3cc2o1` returned an EC50 at Kv1.5 (cells printed in μM) of 5 µM.

For “4-[3-(1-Naphthyloxy)propoxy]-7H-furo[3,2-g][1]benzopyran-7-on [AS135]”, at Kv1.3, the EC50 was 18 ± 1 nM and the “nH (Kv1.3)” value amounted to 2.1.

In the case of `O=c1ccc2c(OCCCOCc3ccccc3)c3ccoc3cc2o1`, on Kv1.5, the EC50 was found to be 0.17 ± 0.02 µM.

Take `O=c1ccc2c(OCCCCOc3ccc(F)cc3)c3ccoc3cc2o1`: the “nH (Kv1.3)” value on Kv1.3 stood at 2.3. This compound also displayed an EC50 on Kv1.5 of 0.012 ± 0.001 µM.

Take `O=c1ccc2c(OCCCCOc3ccc(Cl)cc3)c3ccoc3cc2o1` [AS84, 4-(4-[4-Chlorphenoxy]butoxy)-7H-furo[3,2-g][1]benzopyran-7-on]: the “nH (Kv1.3)” value on Kv1.3 is on record as 2.0. A half-maximal effect at Kv1.5 (EC50) was put at 0.01 µM.

In the case of `O=c1ccc2c(OCCCOc3ccc(Cl)cc3)c3ccoc3cc2o1` [AS132, 4-[3-(4-Chlorphenoxy)propoxy]-7H-furo[3,2-g][1]benzopyran-7-on], the “nH (Kv1.3)” value at Kv1.3 (listed as drawing 81) is reported as 2.0. On Kv1.5, the “nH (Kv1.5)” value stood at 2.0. On Kv1.5 (cells unit inferred), this compound returned an EC50 of 0.025 ± 0.002 µM.

As for `O=c1ccc2c(OCCCCOc3ccc([N+](=O)[O-])cc3)c3ccoc3cc2o1` [AS78, 4-(4-[4-Nitrophenoxy]butoxy)-7H-furo[3,2-g][1]benzopyran-7-on], at Kv1.3, the “nH (Kv1.3)” value is 1.9 and the “selectivity for Kv1.3 channels over Kv1.5 channels” value is “selective for Kv1.3 channels over Kv1.5 channels”. This compound also came in with an EC50 at Kv1.5 of 0.105 ± 0.008 µM.

With `COc1cc(OC)cc(OCCCOc2c3ccoc3cc3oc(=O)ccc23)c1` [AS104, 4-[3-(3,5-Dimethoxyphenoxy)propoxy]-7H-furo[3,2-g][1]benzopyran-7-on], at Kv1.3, the “nH (Kv1.3)” value is reported as 2.2.

On Kv1.5, `COc1cc([N+](=O)[O-])ccc1OCCCCOc1c2ccoc2cc2oc(=O)ccc12` gave an EC50 of 0.476 ± 0.02 µM.

In the case of `COc1cc(OC)cc(OCCCCOc2c3ccoc3cc3oc(=O)ccc23)c1` [AS69, 4-(4-[3,5-Dimethoxyphenoxy]butoxy)-7H-furo[3,2-g][1]benzopyran-7-on], the EC50 at Kv1.5 amounted to 0.15 ± 0.02 µM.

`O=c1ccc2c(OCCCCOCc3ccccc3)c3ccoc3cc2o1` displayed an EC50 on Kv1.5 of 0.75 ± 0.04 µM.

In the case of “MgTX: Kv1.3 blocker MgTX (TIINVKCTSPKQCLPPCKAQFGQSAGAKCMNGKCKCYPH; ends and bridges not checked; cysteine pairing not given here; UniProt P40755 1-39, looked up)”, in assay [1], the “suppression of the primary DTH response” value is on record as “effectively suppress” and the “suppression of the secondary DTH response” value is “much less effective”.

`COc1cccc(OCCCCOc2c3ccoc3cc3oc(=O)ccc23)c1` [AS68, 4-(4-[3-Methoxyphenoxy]butoxy)-7H-furo[3,2-g][1]benzopyran-7-on]: on Kv1.5, the EC50 amounted to 0.045 ± 0.005 µM.

For the compound `O=c1ccc2c(OCCCCOCc3ccc(F)cc3)c3ccoc3cc2o1`, the “nH (Kv1.3)” value on Kv1.3 is 2.

Turning to `O=c1ccc2c(OCCCCc3ccccc3)c3ccoc3cc2o1` [Psora-4], the inhibition of proliferation entry in assay [2] was “potently inhibited”.

For the compound “4-[3-(4-Methylphenoxy)propoxy]-7H-furo[3,2-g][1]benzopyran-7-on [AS127]”, on Kv1.3, the EC50 is 25 ± 2 nM and the “nH (Kv1.3)” value was determined as 1.9. In addition, on Kv1.5, the “nH (Kv1.5)” value came to 1.8. Moreover, on Kv1.5 (cells unit inferred), the EC50 was 0.25 ± 0.01 µM.

On Kv1.5 (cells printed in μM), `N#CCCCCOc1c2occc2cc2ccc(=O)oc12` yielded an EC50 of 10 µM.

On Kv1.5, `COc1ccc2sc(SCCCCOc3c4ccoc4cc4oc(=O)ccc34)nc2c1` had an EC50 of 0.1 µM.

For `O=c1ccc2ccc(OCCCCOc3c4ccoc4cc4oc(=O)ccc34)cc2o1`, the EC50 at Kv1.5 (cells printed in μM) is 5 µM.

On to `Cc1ccc(OCCCCOc2c3ccoc3cc3oc(=O)ccc23)cc1` [AS96, 4-(4-[4-Methylphenoxy]butoxy)-7H-furo[3,2-g][1]benzopyran-7-on], for which the “nH (Kv1.3)” value at Kv1.3 came out at 2.1. For the same compound, the midpoint of the response at Kv1.5, the EC50, lay at 0.02 µM.

Regarding `O=c1ccc2c(OCCCCOc3ccc4ccccc4c3)c3ccoc3cc2o1` [AS118], on Kv1.3, the “nH (Kv1.3)” value came out at 2.1. Further, at Kv1.5, the EC50 stood at 0.08 ± 0.01 µM and the “nH (Kv1.5)” value is 2.0.

In the case of `O=c1ccc2c(OCCCCCOc3ccccc3)c3ccoc3cc2o1`, the “nH (Kv1.3)” value at Kv1.3 is 2.1.

As to `O=c1ccc2c(OCCCCOc3ccc(Oc4ccccc4)cc3)c3ccoc3cc2o1` [AS85, 4-(4-[4-Phenoxyphenoxy]butoxy)-7H-furo[3,2-g][1]benzopyran-7-on], on Kv1.3, the “selectivity for Kv1.3 channels over Kv1.5 channels” value is reported as “selective for Kv1.3 channels over Kv1.5 channels”. On Kv1.5, this compound gave an EC50 of 0.75 µM.

On Kv1.5 (cells printed in μM), `N#CCCCOc1c2occc2cc2ccc(=O)oc12` registered an EC50 of 10 µM.

For `C=C1C[C@@]2(O)[C@@H]3CC[C@@]4(C)[C@@H]5C=CC(=O)OC[C@]5(C(C)OC(C)=O)[C@@H](OC(C)=O)[C@@H](OC(C)=O)[C@@H]4[C@@]3(C)[C@H](OC(C)=O)[C@H](OC(C)=O)[C@@]2(C)C2(C(=O)OC)O[C@H]12` (some centres unmarked) [correolide], in assay [1], the “suppression of the primary DTH response” value was “effectively suppress” and the “suppression of the secondary DTH response” value is listed as “much less effective”.

For the compound “4-[3-(3-Methoxyphenoxy)propoxy]-7H-furo[3,2-g][1]benzopyran-7-on [AS64]”, at Kv1.3, the response was half-maximal at 42 ± 3 nM (EC50) and the “nH (Kv1.3)” value stood at 2.05.

Take “4-[3-(4-Ethylphenoxy)propoxy]-7H-furo[3,2-g][1]benzopyran-7-on [AS123]”: at Kv1.3, a half-maximal response (EC50) required 30 ± 2 nM and the “nH (Kv1.3)” value is 1.7. Besides, on Kv1.5, the “nH (Kv1.5)” value came to 2.0. For the same compound, the EC50 at Kv1.5 (cells unit inferred) was 0.068 ± 0.003 µM.

With `O=c1ccc2c(OCCCOc3ccccc3)c3ccoc3cc2o1` [PAP 3, 4-(3-Phenoxypropoxy)-7H-furo[3,2-g][1]benzopyran-7-on], the EC50 was 80 ± 10 nM at Kv1.1, 0.1 ± 0.008 µM on Kv1.5 and approximately 500 nM on Kv1.4.

As for `N#CCCCCOc1c2ccoc2cc2oc(=O)ccc12`, on Kv1.5 (cells printed in μM), a half-maximal response (EC50) required 5 µM.

`O=c1ccc2c(OCCCCOc3cccc4ccccc34)c3ccoc3cc2o1` [AS111]: the “nH (Kv1.3)” value at Kv1.3 came to 2.0. In addition, at Kv1.5, the response was half-maximal at 0.05 ± 0.005 µM (EC50) and the “nH (Kv1.5)” value worked out at 2.0.

In turn, `N#CCCCOc1c2ccoc2cc2oc(=O)ccc12` yielded an EC50 at Kv1.5 (cells printed in μM) of 12 µM.

On Kv1.5, `O=c1ccc2c(OCCCCSc3ncccn3)c3ccoc3cc2o1` came in with an EC50 of 0.159 ± 0.007 µM.

As for `O=c1ccc2c(OCCCCNc3ccncc3)c3ccoc3cc2o1`, the EC50 at Kv1.5 (cells printed in μM) stood at 5 µM.

Take `Cc1ccc(OCCCCOc2c3ccoc3cc3oc(=O)ccc23)c([N+](=O)[O-])c1`: the EC50 at Kv1.5 worked out at 0.248 ± 0.02 µM.

Regarding `COc1ccc(OCCCCOc2c3ccoc3cc3oc(=O)ccc23)cc1` [AS67, 4-(4-[4-Methoxyphenoxy]butoxy)-7H-furo[3,2-g][1]benzopyran-7-on], the “nH (Kv1.3)” value at Kv1.3 is given as 2.1. The same compound came in with an EC50 on Kv1.5 of 0.01 ± 0.001 µM.

On to `CCc1ccc(OCCCCCOc2c3ccoc3cc3oc(=O)ccc23)cc1`, for which the “nH (Kv1.3)” value at Kv1.3 amounted to 2.1.

In the case of `O=c1ccc2c(OCCCCOc3cccc(C(F)(F)F)c3)c3ccoc3cc2o1`, the “nH (Kv1.3)” value on Kv1.3 is 2.0. This compound also came in with an EC50 on Kv1.5 of 0.25 µM.

Regarding `O=c1ccc2c(OCCOCc3ccccc3)c3ccoc3cc2o1`, the results for the EC50 at Kv1.1 and on Kv1.5 were 175 ± 20 nM and 0.11 ± 0.02 µM, respectively.

`Cc1nnc(SCCCCOc2c3ccoc3cc3oc(=O)ccc23)s1`: a half-maximal response on Kv1.5 (cells printed in μM) (EC50) required 1 µM.
